What follows are compounds tested against GST-tagged-Wee1 kinase (Homo sapiens, UniProt P30291) (assay: Wee1 time-resolved fluorescence equilibrium binding assay (displacement of Oregon Green-labeled ATP-competitive kinase probe)).
Procedure: Wee1 kinase was assayed using a time-resolved fluorescence equilibrium binding assay monitoring displacement of a rapidly reversible Oregon Green-labeled ATP-competitive kinase probe (N-(2-(2-(2-(4-(4-(5-chloro-4-(2-(1-hydroxycyclobutyl)thiazol-5-yl)-1H-pyrrolo[2,3-b]pyridin-2-yl)phenyl)piperazin-1-yl)ethoxy)ethoxy)ethyl)-2′,7′-difluoro-3′,6′-dihydroxy-3-oxo-3H-spiro[isobenzofuran-1,9′-xanthene]-5-carboxamide) by competitive Wee1 inhibitors.

Chain of GST-tagged-Wee1 kinase (P30291 whole entry): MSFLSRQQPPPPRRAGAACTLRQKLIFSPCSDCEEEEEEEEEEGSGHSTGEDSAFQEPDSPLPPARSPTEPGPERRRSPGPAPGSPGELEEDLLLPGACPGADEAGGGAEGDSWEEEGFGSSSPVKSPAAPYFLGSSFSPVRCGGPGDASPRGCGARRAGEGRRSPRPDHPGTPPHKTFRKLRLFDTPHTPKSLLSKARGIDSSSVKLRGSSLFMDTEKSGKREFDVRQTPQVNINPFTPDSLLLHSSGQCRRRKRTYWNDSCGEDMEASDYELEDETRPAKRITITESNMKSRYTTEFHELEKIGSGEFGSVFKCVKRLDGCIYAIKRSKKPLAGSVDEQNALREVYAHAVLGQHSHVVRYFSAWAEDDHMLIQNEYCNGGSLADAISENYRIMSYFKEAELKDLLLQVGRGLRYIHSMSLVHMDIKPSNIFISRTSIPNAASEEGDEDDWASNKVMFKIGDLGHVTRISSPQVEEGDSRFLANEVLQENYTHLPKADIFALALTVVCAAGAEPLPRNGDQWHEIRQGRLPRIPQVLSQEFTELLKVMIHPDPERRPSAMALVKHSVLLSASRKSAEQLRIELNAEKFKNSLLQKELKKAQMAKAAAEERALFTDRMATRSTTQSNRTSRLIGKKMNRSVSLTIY

Ki [nM] | SMILES
0.1 | CN1CCN(c2ccc(Nc3ncc4c(=O)n(-c5c(Cl)cccc5Cl)nc(-c5cccs5)c4n3)cc2)CC1 [Example 70, 6-(2,6-dichlorophenyl)-2-{[4-(4-methylpiperazin-1-yl)phenyl]amino}-8-(2-thienyl)pyrimido[4,5-d]pyridazin-5(6H)-one]
0.2 | Cc1ccccc1-c1nn(-c2c(Cl)cccc2Cl)c(=O)c2cnc(Nc3ccc(N4CCN(C)CC4)cc3)nc12 [Example 71, 6-(2,6-dichlorophenyl)-8-(2-methylphenyl)-2-{[4-(4-methylpiperazin-1-yl)phenyl]amino}pyrimido[4,5-d]pyridazin-5(6H)-one]
3 | CN1CCN(c2ccc(Nc3ncc4c(=O)n(-c5ccccc5)nc(-c5cccc(Cl)n5)c4n3)cc2)CC1 [Example 73, 8-(6-chloropyridin-2-yl)-2-{[4-(4-methylpiperazin-1-yl)phenyl]amino}-6-phenylpyrimido[4,5-d]pyridazin-5(6H)-one]
9 | CN1CCN(c2ccc(Nc3ncc4c(=O)n(-c5ccccc5)nc(-c5cccc(F)c5)c4n3)cc2)CC1 [Example 82, 8-(3-fluorophenyl)-2-{[4-(4-methylpiperazin-1-yl)phenyl]amino}-6-phenylpyrimido[4,5-d]pyridazin-5(6H)-one]
0.1 | CN1CCN(c2ccc(Nc3ncc4c(=O)n(-c5c(Cl)cccc5Cl)nc(-c5cccc(F)c5)c4n3)cc2)CC1 [Example 84, 6-(2,6-dichlorophenyl)-8-(3-fluorophenyl)-2-{[4-(4-methylpiperazin-1-yl)phenyl]amino}pyrimido[4,5-d]pyridazin-5(6H)-one]
0.1 | CN1CCN(c2ccc(Nc3ncc4c(=O)n(-c5c(Cl)cccc5Cl)nc(-c5cnn(C)c5)c4n3)cc2)CC1 [Example 87, 6-(2,6-dichlorophenyl)-2-{[4-(4-methylpiperazin-1-yl)phenyl]amino}-8-(1-methyl-1H-pyrazol-4-yl)pyrimido[4,5-d]pyridazin-5(6H)-one]
0.2 | CN1CCN(c2ccc(Nc3ncc4c(=O)n(-c5c(Cl)cccc5Cl)nc(-c5cccc(N(C)C)c5)c4n3)cc2)CC1 [Example 90, 6-(2,6-dichlorophenyl)-8-[3-(dimethylamino)phenyl]-2-{[4-(4-methylpiperazin-1-yl)phenyl]amino}pyrimido[4,5-d]pyridazin-5(6H)-one]
0.3 | CN1CCN(c2ccc(Nc3ncc4c(=O)n(-c5c(Cl)cccc5Cl)nc(-c5cccc(-c6c[nH]cn6)c5)c4n3)cc2)CC1 [Example 91, 6-(2,6-dichlorophenyl)-8-[3-(1H-imidazol-4-yl)phenyl]-2-{[4-(4-methylpiperazin-1-yl)phenyl]amino}pyrimido[4,5-d]pyridazin-5(6H)-one]
0.5 | CN1CCN(c2ccc(Nc3ncc4c(=O)n(-c5ccccc5Cl)nc(-c5ccoc5)c4n3)cc2)CC1 [Example 94, 6-(2-chlorophenyl)-8-(3-furyl)-2-{[4-(4-methylpiperazin-1-yl)phenyl]amino}pyrimido[4,5-d]pyridazin-5(6H)-one]
0.2 | CN1CCN(c2ccc(Nc3ncc4c(=O)n(-c5ccccc5Cl)nc(-c5ccsc5)c4n3)cc2)CC1 [Example 96, 6-(2-chlorophenyl)-2-{[4-(4-methylpiperazin-1-yl)phenyl]amino}-8-(3-thienyl)pyrimido[4,5-d]pyridazin-5(6H)-one]
0.06 | CN1CCN(c2ccc(Nc3ncc4c(=O)n(-c5c(Cl)cccc5Cl)nc(-c5ccsc5)c4n3)cc2)CC1 [Example 97, 6-(2,6-dichlorophenyl)-2-{[4-(4-methylpiperazin-1-yl)phenyl]amino}-8-(3-thienyl)pyrimido[4,5-d]pyridazin-5(6H)-one]

Continued, compound first:

SMILES | Ki [nM]
CN1CCN(c2ccc(Nc3ncc4c(=O)n(-c5c(Cl)cccc5Cl)nc(-c5cccc(Br)c5)c4n3)cc2)CC1 [Example 72, 8-(3-bromophenyl)-6-(2,6-dichlorophenyl)-2-{[4-(4-methylpiperazin-1-yl)phenyl]amino}pyrimido[4,5-d]pyridazin-5(6H)-one] | 0.5
CN1CCN(c2ccc(Nc3ncc4c(=O)n(-c5c(Cl)cccc5Cl)nc(C5CCCC5)c4n3)cc2)CC1 [Example 74, 8-cyclopentyl-6-(2,6-dichlorophenyl)-2-{[4-(4-methylpiperazin-1-yl)phenyl]amino}pyrimido[4,5-d]pyridazin-5(6H)-one] | 1
CN1CCN(c2ccc(Nc3ncc4c(=O)n(-c5c(Cl)cccc5Cl)nc(-c5cccc(NNc6c(Cl)cccc6Cl)n5)c4n3)cc2)CC1 [Example 76, 6-(2,6-dichlorophenyl)-8-{6-[2-(2,6-dichlorophenyl)hydrazino]pyridin-2-yl}-2-{[4-(4-methylpiperazin-1-yl)phenyl]amino}pyrimido[4,5-d]pyridazin-5(6H)-one] | 4
CN1CCN(c2ccc(Nc3ncc4c(=O)n(-c5ccccc5)nc(-c5cccnc5Cl)c4n3)cc2)CC1 [Example 78, 8-(2-chloropyridin-3-yl)-2-{[4-(4-methylpiperazin-1-yl)phenyl]amino}-6-phenylpyrimido[4,5-d]pyridazin-5(6H)-one] | 48
CCOc1ncccc1-c1nn(-c2ccccc2)c(=O)c2cnc(Nc3ccc(N4CCN(C)CC4)cc3)nc12 [Example 79, 8-(2-ethoxypyridin-3-yl)-2-{[4-(4-methylpiperazin-1-yl)phenyl]amino}-6-phenylpyrimido[4,5-d]pyridazin-5(6H)-one] | 710
CN1CCN(c2ccc(Nc3ncc4c(=O)n(-c5ccccc5Cl)nc(-c5cccnc5Cl)c4n3)cc2)CC1 [Example 80, 6-(2-chlorophenyl)-8-(2-chloropyridin-3-yl)-2-{[4-(4-methylpiperazin-1-yl)phenyl]amino}pyrimido[4,5-d]pyridazin-5(6H)-one] | 27
CN1CCN(c2ccc(Nc3ncc4c(=O)n(-c5c(Cl)cccc5Cl)nc(-c5cccnc5Cl)c4n3)cc2)CC1 [Example 81, 8-(2-chloropyridin-3-yl)-6-(2,6-dichlorophenyl)-2-{[4-(4-methylpiperazin-1-yl)phenyl]amino}pyrimido[4,5-d]pyridazin-5(6H)-one] | 4
CN1CCN(c2ccc(Nc3ncc4c(=O)n(-c5ccccc5Cl)nc(-c5cccc(F)c5)c4n3)cc2)CC1 [Example 83, 6-(2-chlorophenyl)-8-(3-fluorophenyl)-2-{[4-(4-methylpiperazin-1-yl)phenyl]amino}pyrimido[4,5-d]pyridazin-5(6H)-one] | 0.2
CN1CCN(c2ccc(Nc3ncc4c(=O)n(-c5ccccc5)nc(-c5cnn(C)c5)c4n3)cc2)CC1 [Example 85, 2-{[4-(4-methylpiperazin-1-yl)phenyl]amino}-8-(1-methyl-1H-pyrazol-4-yl)-6-phenylpyrimido[4,5-d]pyridazin-5(6H)-one] | 24.7
CN1CCN(c2ccc(Nc3ncc4c(=O)n(-c5c(Cl)cccc5Cl)nc(-c5cccc(O)n5)c4n3)cc2)CC1 [Example 88, 6-(2,6-dichlorophenyl)-8-(6-hydroxypyridin-2-yl)-2-{[4-(4-methylpiperazin-1-yl)phenyl]amino}pyrimido[4,5-d]pyridazin-5(6H)-one] | 5
CN1CCN(c2ccc(Nc3ncc4c(=O)n(-c5c(Cl)cccc5Cl)nc(-c5cccc(C#N)c5)c4n3)cc2)CC1 [Example 89, 3-[6-(2,6-dichlorophenyl)-2-{[4-(4-methylpiperazin-1-yl)phenyl]amino}-5-oxo-5,6-dihydropyrimido[4,5-d]pyridazin-8-yl]benzonitrile] | 0.07
CN1CCN(c2ccc(Nc3ncc4c(=O)n(-c5c(Cl)cccc5Cl)nc(-c5cccc(-c6ccc[nH]6)c5)c4n3)cc2)CC1 [Example 92, 6-(2,6-dichlorophenyl)-2-{[4-(4-methylpiperazin-1-yl)phenyl]amino}-8-[3-(1H-pyrrol-2-yl)phenyl]pyrimido[4,5-d]pyridazin-5(6H)-one] | 8
CN1CCN(c2ccc(Nc3ncc4c(=O)n(-c5c(Cl)cccc5Cl)nc(-c5cccc(N6CCCCC6=O)c5)c4n3)cc2)CC1 [Example 93, 6-(2,6-dichlorophenyl)-2-{[4-(4-methylpiperazin-1-yl)phenyl]amino}-8-[3-(2-oxopiperidin-1-yl)phenyl]pyrimido[4,5-d]pyridazin-5(6H)-one] | 0.1
CN1CCN(c2ccc(Nc3ncc4c(=O)n(-c5ccccc5Cl)nc(-c5cccnc5)c4n3)cc2)CC1 [Example 98, 6-(2-chlorophenyl)-2-{[4-(4-methylpiperazin-1-yl)phenyl]amino}-8-(pyridin-3-yl)pyrimido[4,5-d]pyridazin-5(6H)-one] | 0.5
CN1CCN(c2ccc(Nc3ncc4c(=O)n(-c5c(Cl)cccc5Cl)nc(-c5cccnc5)c4n3)cc2)CC1 [Example 99, 6-(2,6-dichlorophenyl)-2-{[4-(4-methylpiperazin-1-yl)phenyl]amino}-8-(pyridin-3-yl)pyrimido[4,5-d]pyridazin-5(6H)-one] | 0.09
CN1CCN(c2ccc(Nc3ncc4c(=O)n(-c5ccccc5)nc(-c5cccnc5)c4n3)cc2)CC1 [Example 100, 2-{[4-(4-methylpiperazin-1-yl)phenyl]amino}-6-phenyl-8-(pyridin-3-yl)pyrimido[4,5-d]pyridazin-5(6H)-one] | 14
CN1Cc2cc(Nc3ncc4c(=O)n(-c5c(Cl)cccc5Cl)nc(-c5cccnc5)c4n3)ccc2C2(CC2)C1 [Example 101, 6-(2,6-dichlorophenyl)-2-[(2′-methyl-2′,3′-dihydro-1′H-spiro[cyclopropane-1,4′-isoquinolin]-7′-yl)amino]-8-(pyridin-3-yl)pyrimido[4,5-d]pyridazin-5(6H)-one] | 0.02
CN1CCN(c2ccc(Nc3ncc4c(=O)n(-c5ccccc5)nc(-c5ccccn5)c4n3)cc2)CC1 [Example 102, 2-{[4-(4-methylpiperazin-1-yl)phenyl]amino}-6-phenyl-8-(pyridin-2-yl)pyrimido[4,5-d]pyridazin-5(6H)-one] | 6
CN1CCN(c2ccc(Nc3ncc4c(=O)n(-c5c(Cl)cccc5Cl)nc(-c5ccccn5)c4n3)cc2)CC1 [Example 103, 6-(2,6-dichlorophenyl)-2-{[4-(4-methylpiperazin-1-yl)phenyl]amino}-8-(pyridin-2-yl)pyrimido[4,5-d]pyridazin-5(6H)-one] | 0.2
